Here are results for 4 molecules from patent publication US20250312320A1, “METHOD AND TREATMENT FOR OSTEOARTHRITIS AND DISEASES OF CHONDROCYTE HYPERTROPHY” (The Royal Veterinary College, priority 2022, published 2025).

The test system of the experiment is ATDC5 micromass. The experiment in a line: Dose response of CDK8 inhibitors on ATDC5 micromass (alizarin red / alcian blue). The class given is cell-based, mouse. The conditions noted are these: day 14. How it is done:
In brief, 2 μl micromasses were seeded in a 96-well plate and cultured as previous in the presence of BI1347 and additional CDK8i compounds namely BRD6989, AS2863619, SEL120-34A, MSC2530818 and CCT251545. Compound concentrations were titrated 10-fold from 10 μM down to 0.1 nM. On day 14 micromasses were fixed, stained and subsequently leached to allow for dose response analysis to be conducted.
In brief, 2 μl micromasses were seeded on a 96-well plate and cultured as previous in the presence of BI1347 and additional Mediator kinase inhibitor compounds namely BRD6989, AS2863619, SEL120-34A, MSC2530818 and CCT251545. Compound concentrations were titrated 10-fold from 10 μM down to 0.1 nM. On day 14 micromasses were fixed, stained and subsequently leached to allow for dose response analysis to be conducted.

Structures are written as SMILES.

Consider `Cc1nc2ccc(-n3c(-c4nonc4N)nc4cnccc43)cc2[nH]1.Cl.Cl` [AS2863619], for which the “alcian blue staining (GAG deposition)” value (highest concentration of 10 μM) is “modestly reduced”.
With `CC1CCc2nc(N)c(C#N)c(-c3cccnc3)c2C1` (stereo not shown) [BRD6989], where the note is “all concentrations (10 μM down to 0.1 nM)”, the “alcian blue staining (GAG deposition)” value is listed as “maintained”.
In the case of `Cn1cc(-c2ccc(-c3cncc(Cl)c3N3CCC4(CCNC4=O)CC3)cc2)cn1` [CCT251545], the “alcian blue staining (GAG deposition)” value (highest concentration of 10 μM) was “modestly reduced”.
The same measure, in the same setting: the result for `Cc1c(Br)c(Br)c2c3c1nc(N1CCNCC1)n3CCC2.Cl` [SEL120-34A] reads “modestly reduced”.
